# Patent EP0672419A1, “BLOOD PRESSURE REGULATOR” (Asahi Kasei Kogyo Kabushiki Kaisha, priority 1991, dated 1995)
# Test system: adult mongrel dogs
# Test: Phenylephrine-induced hypertension in four anesthetized dogs (Example 8)
# Assay type: in vivo, dog
# Conditions: after administ. of phenylephrine 10 min.; 10 µg/kg/min, before CGRP
# Procedure: Example 6 was repeated by substantially almost same manner using four adult mongrel dogs, mean body weight 12.3±3.0 kg, applying same anesthetic condition. After setting up the experiment at more than 60 minutes passing and confirming to stabilize the depth of anesthesia and blood flow, phenylephrine (hypertensor) 10 µg/kg/min was administered.
# Further after 10 minutes passed, the active ingredient, desalanyl-deamino-c-CGRP 10 µg/kg/hr was administered and at 10 min. and 20 min. after administration of the active ingredient, heart rate (HR) and mean a artery pressure (MAP) were measured.
structure (smiles),measurement,value
CNC[C@H](O)c1cccc(O)c1 [phenylephrine],HR: Heart rate,138.0±9.3 beat/min
same,MAP: Mean artery pressure,159.0±6.2 mmHg
